In assay [1] the target is T1, PnpE, γ-hydroxymuconic semialdehyde dehydrogenase (Pseudomonas sp. WBC-3, UniProt C1I208).
T1 construct: recombinant His-tagged in E. coli BL21(DE3), pET29b NdeI/XhoI; Ni-NTA, Source-Q, Superdex-200; homodimer (four dimers per asymmetric unit)
T1 sequence (C1I208 1-487): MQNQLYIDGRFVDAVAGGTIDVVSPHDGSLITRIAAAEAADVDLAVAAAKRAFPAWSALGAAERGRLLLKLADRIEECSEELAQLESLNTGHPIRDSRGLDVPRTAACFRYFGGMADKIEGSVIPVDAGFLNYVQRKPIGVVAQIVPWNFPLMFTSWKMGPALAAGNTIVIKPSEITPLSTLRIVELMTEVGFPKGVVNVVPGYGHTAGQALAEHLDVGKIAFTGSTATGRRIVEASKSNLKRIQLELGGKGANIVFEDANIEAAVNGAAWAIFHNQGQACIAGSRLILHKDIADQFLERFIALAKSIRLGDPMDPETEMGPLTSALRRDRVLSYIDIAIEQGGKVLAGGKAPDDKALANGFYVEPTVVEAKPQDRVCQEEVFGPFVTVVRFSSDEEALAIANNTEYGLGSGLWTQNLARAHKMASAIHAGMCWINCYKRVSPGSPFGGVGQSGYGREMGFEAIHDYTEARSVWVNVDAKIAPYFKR
As to the kind of experiment: X-ray crystal structure, […] Å. Type of assay: binding. The settings on record: co-crystallised with 1 mM NAD, 0.1 M Bicine pH 8.5, 20% PEG10000, 20 °C; cofactor site.

Assay [2] addresses γ-hydroxymuconic semialdehyde dehydrogenase PnpE from Pseudomonas sp. strain WBC-3 (Pseudomonas sp. strain WBC-3). In words: crystal structure; apo-PnpE, space group P21, 2.7 Å; eight monomers in the asymmetric unit; crystals grown from 20% PEG3350, 0.2 M KNO3 at 20°C.

As for `NC(=O)c1ccc[n+]([C@@H]2O[C@H](COP(=O)(O)OP(=O)(O)OC[C@H]3O[C@@H](n4cnc5c(N)ncnc54)[C@H](O)[C@@H]3O)[C@@H](O)[C@H]2O)c1` [NAD], the “X-ray crystal structure, 3.1 Å” value in assay [1] is recorded as “In the PnpE-NAD complex structure, NAD is situated in a cleft of PnpE”. Usually stoichiometry N stands for a count of units in the complex or per binding partner. In assay [2], “γ-hydroxymuconic semialdehyde dehydrogenase PnpE from Pseudomonas sp. strain WBC-3 (enzyme)” displayed a stoichiometry N of 2.
